This note sets out measurements from patent US9902733B2, “Furopyridines as inhibitors of protein kinases” (MASARYKOVA UNIVERZITA, priority 2014, dated 2018).

Format in all cases: biochemical
One assay concerns the target T1, HIPK2(h) (Homo sapiens, UniProt Q9H2X6).
T1 construct: purchased Merck Millipore (KinaseProfiler service)
Description: HIPK2 KinaseProfiler radiometric protein kinase assay. The conditions noted are these: 10 μM ATP, 40 minutes at room temperature. The protocol: (§1) In vitro essays were performed by the company Merck Millipore in their KinaseProfiler radiometric protein kinase assay as paid commercial service. The compounds IC50 values for inhibition of individual protein kinases were determined. Dose-response curves were plotted from inhibition data generated, each in duplicate, from 10 point serial dilutions of inhibitory compounds. Concentration of compound was plotted against % kinase activity. To generate IC50 values, the dose-response curves were fitted to a standard sigmoidal curve and IC50 values were derived by standard nonlinear regression analysis.
(§2) All tested compounds were prepared in 100% DMSO to final assay concentrations either 0.5 mM (for the concentration row A, see below) or 0.05 mM (for the concentration row B). This working stock of the compound was added to the assay well as the first component in the reaction, followed by the remaining components as detailed below. The stock solution was added to the individual assay wells in such amounts that the concentrations of the compound were either in the row A (0.001 μM, 0.003 μM, 0.01 μM, 0.03 μM, 0.1 μM, 0.3 μM, 1.0 μM, 3.0 μM, and 10.0 μM) or in the row B (0.0001 μM, 0.0003 μM, 0.001 μM, 0.003 μM, 0.01 μM, 0.03 μM, 0.1 μM, 0.3 μM, and 1.0 μM). There was no pre-incubation step between the compound and the kinase prior to initiation of the reaction.
(§3) The positive control wells contained all components of the reaction, except the compound of interest; however, DMSO (at a final concentration of 2%) was included in these wells to control for solvent effects. The blank wells contained all components of the reaction, with staurosporine as a reference inhibitor replacing the compound of interest. This abolished kinase activity and established the base-line (0% kinase activity remaining).
HIPK2(h) was diluted in the buffer (20 mM MOPS, 1 mM EDTA, 0.01% Brij-35, 5% Glycerol, 0.1% β-mercaptoethanol, 1 mg/mL BSAs) to the concentration of 1.01 mg/mL prior to addition to the reaction mix.
(§4) The above stock solution of HIPK2(h) was added to a mixture containing 8 mM MOPS pH 7.0, 0.2 mM EDTA, and 0.33 mg/mL myelin basic protein in such amount that the resulting concentration of HIPK2(h) was 1.4 nM. This mixture was added to the stock solution of the tested compound. The reaction was initiated by the addition of the MgATP mix in such amount that the resulting concentration of Mg acetate in the reaction mixture was 10 mM and [γ-^33P-ATP] (specific activity approx. 500 cpm/pmol) was 10 μM. After incubation for 40 minutes at room temperature, the reaction was stopped by the addition of 3% phosphoric acid solution. 10 μL of the reaction was then spotted onto a P30 filtermat and washed three times for 5 minutes in 75 mM phosphoric acid and once in methanol prior to drying and scintillation counting.

The target in another assay is T2, HIPK1(h) (Homo sapiens, UniProt Q86Z02).
T2 construct: purchased Merck Millipore (KinaseProfiler service)
T2 sequence (Q86Z02 whole entry): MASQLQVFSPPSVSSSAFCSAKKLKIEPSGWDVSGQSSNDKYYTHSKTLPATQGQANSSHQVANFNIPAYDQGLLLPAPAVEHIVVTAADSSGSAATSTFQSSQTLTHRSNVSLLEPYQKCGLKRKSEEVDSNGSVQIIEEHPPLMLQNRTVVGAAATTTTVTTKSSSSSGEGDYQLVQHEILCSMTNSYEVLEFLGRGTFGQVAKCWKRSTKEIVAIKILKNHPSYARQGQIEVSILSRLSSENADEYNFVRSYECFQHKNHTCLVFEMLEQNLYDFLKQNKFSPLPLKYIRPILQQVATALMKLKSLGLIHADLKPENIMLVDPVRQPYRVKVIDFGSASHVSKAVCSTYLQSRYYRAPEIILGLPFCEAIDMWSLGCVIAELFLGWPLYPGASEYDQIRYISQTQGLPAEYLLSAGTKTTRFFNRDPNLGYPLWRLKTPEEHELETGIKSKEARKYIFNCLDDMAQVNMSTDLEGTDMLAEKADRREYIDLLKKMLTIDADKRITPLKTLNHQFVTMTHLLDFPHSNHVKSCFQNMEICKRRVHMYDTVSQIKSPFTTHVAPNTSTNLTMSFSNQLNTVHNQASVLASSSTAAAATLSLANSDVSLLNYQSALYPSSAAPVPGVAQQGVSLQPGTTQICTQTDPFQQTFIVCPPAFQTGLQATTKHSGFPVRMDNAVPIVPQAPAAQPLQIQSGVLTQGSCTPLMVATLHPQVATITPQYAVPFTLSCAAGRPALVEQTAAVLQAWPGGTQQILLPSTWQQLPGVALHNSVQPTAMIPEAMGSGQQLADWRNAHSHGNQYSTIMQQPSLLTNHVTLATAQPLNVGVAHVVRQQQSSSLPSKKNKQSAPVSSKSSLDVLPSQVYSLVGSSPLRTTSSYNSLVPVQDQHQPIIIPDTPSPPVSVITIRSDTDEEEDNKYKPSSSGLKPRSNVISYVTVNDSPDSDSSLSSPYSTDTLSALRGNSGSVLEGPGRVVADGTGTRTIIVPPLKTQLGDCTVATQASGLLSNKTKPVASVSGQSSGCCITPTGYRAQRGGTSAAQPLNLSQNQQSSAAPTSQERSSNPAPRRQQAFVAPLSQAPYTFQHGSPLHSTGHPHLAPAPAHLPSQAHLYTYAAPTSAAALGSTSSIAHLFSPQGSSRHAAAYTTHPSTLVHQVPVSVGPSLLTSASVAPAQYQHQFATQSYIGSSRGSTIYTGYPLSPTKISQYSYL
Description: HIPK1 KinaseProfiler radiometric protein kinase assay. The settings on record: 45 μM ATP, 40 minutes at room temperature. How it is done:
as §1, §2, §3
HIPK1(h) was diluted in the buffer (20 mM MOPS, 1 mM EDTA, 0.01% Brij-35, 5% Glycerol, 0.1% β-mercaptoethanol, 1 mg/mL BSAs) to the concentration of 1.01 mg/mL prior to addition to the reaction mix.
as §4, with “solution of HIPK1(h) was added” for “solution of HIPK2(h) was added”, “concentration of HIPK1(h) was 4.7” for “concentration of HIPK2(h) was 1.4”, “HIPK1(h) was 4.7 nM. This” for “HIPK2(h) was 1.4 nM. This”, “cpm/pmol) was 45 μM. After” for “cpm/pmol) was 10 μM. After”

A further assay addresses T3, CLK4 (h) (Homo sapiens, UniProt Q9HAZ1).
T3 construct: purchased Merck Millipore (KinaseProfiler service)
Description: CLK4 KinaseProfiler radiometric protein kinase assay. The conditions noted are these: 15 μM ATP, 40 minutes at room temperature. How it is done: as §1, §2, §3
CLK4 (h) was diluted in the buffer (20 mM MOPS, 1 mM EDTA, 0.01% Brij-35, 5% Glycerol, 0.1% β-mercaptoethanol, 1 mg/mL BSAs) to the concentration of 1.01 mg/mL prior to addition to the reaction mix.
as §4, with “solution of CLK4(h) was added” for “solution of HIPK2(h) was added”, “EDTA, and 200 μM […](p) EDEEE in such” for “EDTA, and 0.33 mg/mL myelin basic protein in such”, “concentration of CLK4(h) was 140.8” for “concentration of HIPK2(h) was 1.4”, “CLK4(h) was 140.8 nM. This” for “HIPK2(h) was 1.4 nM. This”, “cpm/pmol) was 15 μM. After” for “cpm/pmol) was 10 μM. After”

For the next assay, the target named is T4, CLK2 (h) (Homo sapiens, UniProt P49760).
T4 construct: purchased Merck Millipore (KinaseProfiler service)
T4 sequence (P49760 whole entry): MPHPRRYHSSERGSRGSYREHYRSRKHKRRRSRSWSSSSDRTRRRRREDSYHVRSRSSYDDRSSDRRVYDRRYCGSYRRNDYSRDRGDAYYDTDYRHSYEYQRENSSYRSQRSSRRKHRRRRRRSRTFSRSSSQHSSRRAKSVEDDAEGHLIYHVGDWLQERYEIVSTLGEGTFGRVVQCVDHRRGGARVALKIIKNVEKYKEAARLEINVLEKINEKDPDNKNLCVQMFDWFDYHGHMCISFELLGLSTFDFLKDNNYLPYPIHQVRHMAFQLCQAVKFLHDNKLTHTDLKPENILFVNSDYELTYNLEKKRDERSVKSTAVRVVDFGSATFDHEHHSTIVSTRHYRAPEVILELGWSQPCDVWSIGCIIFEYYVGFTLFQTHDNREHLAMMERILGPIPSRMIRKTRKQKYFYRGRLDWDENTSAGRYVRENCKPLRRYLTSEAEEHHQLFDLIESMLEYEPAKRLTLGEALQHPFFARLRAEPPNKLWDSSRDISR
Description: CLK2 KinaseProfiler radiometric protein kinase assay. The protocol:
as §1, §2, §3
CLK2 (h) was diluted in the buffer (20 mM MOPS (3-(N-morpholino)propanesulfonic acid), 1 mM EDTA (ethylendiaminotetraacetic acid), 0.01% Brij-35 (detergent), 5% Glycerol, 0.1% β-mercaptoethanol, 1 mg/mL BSAs) to the concentration of 1.01 mg/mL prior to addition to the reaction mix.
as §4, with “solution of CLK2(h) was added” for “solution of HIPK2(h) was added”, “EDTA, and 20 μM […](p) EDEEE in such” for “EDTA, and 0.33 mg/mL myelin basic protein in such”, “concentration of CLK2(h) was 2.1” for “concentration of HIPK2(h) was 1.4”, “CLK2(h) was 2.1 nM. This” for “HIPK2(h) was 1.4 nM. This”, “cpm/pmol) was 15 μM. After” for “cpm/pmol) was 10 μM. After”

The target in the next assay is T5, DYRK2 (Homo sapiens, UniProt Q92630).
T5 construct: purchased Merck Millipore (KinaseProfiler service)
T5 sequence (Q92630 1-601): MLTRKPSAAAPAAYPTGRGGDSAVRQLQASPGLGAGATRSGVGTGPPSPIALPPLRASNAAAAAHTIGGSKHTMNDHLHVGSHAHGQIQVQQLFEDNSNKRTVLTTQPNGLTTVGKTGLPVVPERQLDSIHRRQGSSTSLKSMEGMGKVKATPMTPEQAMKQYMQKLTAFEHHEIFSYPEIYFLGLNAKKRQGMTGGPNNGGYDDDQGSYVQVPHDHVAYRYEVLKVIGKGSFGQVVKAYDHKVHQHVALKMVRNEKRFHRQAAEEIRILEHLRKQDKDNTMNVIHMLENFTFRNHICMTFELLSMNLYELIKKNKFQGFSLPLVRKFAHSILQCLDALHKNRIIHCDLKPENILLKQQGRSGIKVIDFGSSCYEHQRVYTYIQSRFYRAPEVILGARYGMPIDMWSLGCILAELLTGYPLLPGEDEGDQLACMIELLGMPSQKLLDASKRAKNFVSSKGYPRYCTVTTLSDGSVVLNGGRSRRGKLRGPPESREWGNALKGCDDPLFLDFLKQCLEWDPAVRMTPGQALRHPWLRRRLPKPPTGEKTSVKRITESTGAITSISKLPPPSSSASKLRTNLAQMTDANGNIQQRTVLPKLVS
Description: DYRK2 KinaseProfiler radiometric protein kinase assay. The protocol:
as §1, §2, §3

Where [1] appears, read: radiometric, 15 μM ATP, 40 minutes at room temperature, read-out: CLK2 IC50.

A word on the IC50: it is the midpoint of a concentration-inhibition curve.

Where two headings read alike, the source gives them in different places. Where only a bound is given, the exact number is not on record here.

T3 sequence (Q9HAZ1 whole entry): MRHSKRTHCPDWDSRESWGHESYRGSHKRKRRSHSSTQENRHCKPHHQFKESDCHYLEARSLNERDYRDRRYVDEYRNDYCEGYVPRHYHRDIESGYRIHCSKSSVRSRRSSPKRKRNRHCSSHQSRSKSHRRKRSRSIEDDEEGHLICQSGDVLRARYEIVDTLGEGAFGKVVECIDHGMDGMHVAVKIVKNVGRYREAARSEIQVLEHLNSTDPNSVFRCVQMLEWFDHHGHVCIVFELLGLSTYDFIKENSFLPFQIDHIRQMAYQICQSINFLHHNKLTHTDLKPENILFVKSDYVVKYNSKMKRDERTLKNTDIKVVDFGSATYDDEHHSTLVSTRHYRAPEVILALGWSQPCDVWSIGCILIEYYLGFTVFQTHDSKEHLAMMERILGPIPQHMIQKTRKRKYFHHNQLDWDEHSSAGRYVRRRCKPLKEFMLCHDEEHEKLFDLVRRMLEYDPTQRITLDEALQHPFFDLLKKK
T1 sequence (Q9H2X6 whole entry): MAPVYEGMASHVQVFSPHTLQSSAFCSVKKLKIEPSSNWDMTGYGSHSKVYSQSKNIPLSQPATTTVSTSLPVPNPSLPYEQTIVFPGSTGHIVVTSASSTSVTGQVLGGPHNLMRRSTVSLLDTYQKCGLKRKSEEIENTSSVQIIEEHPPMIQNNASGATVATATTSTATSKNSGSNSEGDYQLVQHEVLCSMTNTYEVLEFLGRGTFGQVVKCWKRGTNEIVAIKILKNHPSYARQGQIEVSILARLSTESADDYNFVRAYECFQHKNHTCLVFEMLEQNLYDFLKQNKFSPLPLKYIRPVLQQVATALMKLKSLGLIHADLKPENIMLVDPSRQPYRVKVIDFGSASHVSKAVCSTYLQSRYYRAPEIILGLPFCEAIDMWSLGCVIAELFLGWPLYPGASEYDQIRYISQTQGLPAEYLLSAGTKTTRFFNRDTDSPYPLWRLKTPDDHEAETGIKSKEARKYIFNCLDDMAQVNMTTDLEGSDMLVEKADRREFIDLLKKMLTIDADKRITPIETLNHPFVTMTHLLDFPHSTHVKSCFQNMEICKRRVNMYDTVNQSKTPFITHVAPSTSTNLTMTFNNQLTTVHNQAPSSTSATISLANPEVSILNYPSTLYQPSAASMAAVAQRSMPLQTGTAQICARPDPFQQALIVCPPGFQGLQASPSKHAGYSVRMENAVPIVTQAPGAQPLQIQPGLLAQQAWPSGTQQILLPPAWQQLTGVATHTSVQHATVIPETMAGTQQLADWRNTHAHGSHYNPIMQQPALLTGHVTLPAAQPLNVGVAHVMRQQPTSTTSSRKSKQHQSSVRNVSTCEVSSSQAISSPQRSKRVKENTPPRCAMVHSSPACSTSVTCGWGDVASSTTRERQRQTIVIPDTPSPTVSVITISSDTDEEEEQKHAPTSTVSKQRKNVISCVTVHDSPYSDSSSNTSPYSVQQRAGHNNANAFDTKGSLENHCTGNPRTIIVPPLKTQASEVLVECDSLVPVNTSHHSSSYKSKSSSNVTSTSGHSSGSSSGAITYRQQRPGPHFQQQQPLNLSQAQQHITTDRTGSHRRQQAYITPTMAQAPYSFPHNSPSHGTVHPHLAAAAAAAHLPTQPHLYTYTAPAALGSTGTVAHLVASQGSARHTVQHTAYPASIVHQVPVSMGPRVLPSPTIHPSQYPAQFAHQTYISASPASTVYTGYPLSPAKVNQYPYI

Take `c1ccc(-c2coc3ccc(-c4cccnc4)nc23)cc1` [Preparative Example 6D]: the IC50 against HIPK2(h) is under 5 µM; on HIPK1(h), under 5 µM; against CLK4 (h), under 1 µM; on CLK2 (h) (setting [1]) it was under 5 µM.

Turning to `CC(C)n1cc(-c2ccc3occ(-c4ccc5ccccc5c4)c3n2)cn1` [Preparative Example 7C], the IC50 at HIPK2(h), on CLK4 (h) and on CLK2 (h) (setting [1]) was under 5 µM each time.

For `c1ccc2cc(-c3coc4ccc(-c5cncs5)nc34)ccc2c1` [Preparative Example 7F], the IC50 against HIPK2(h) is under 0.1 µM; against HIPK1(h) it was under 1 µM; at CLK4 (h) it was under 1 µM; at CLK2 (h) (setting [1]), under 1 µM.

For `Cn1cc(-c2ccc3occc3n2)cn1` [Preparative Example 12B], the IC50 against CLK4 (h) is under 1 µM; at CLK2 (h) (setting [1]), under 5 µM.

Consider `CCc1coc2ccc(-c3cnn(C)c3)nc12` [Preparative Example 23], for which the IC50 against DYRK2 was under 5 µM; on CLK4 (h) it was under 1 µM; on CLK2 (h) (setting [1]) it was under 1 µM.

With `CC(C)(C)c1ccc(-c2coc3ccc(-c4cn[nH]c4)nc23)cc1` [Preparative Example 54], the IC50 is under 1 µM against HIPK2(h), under 1 µM at HIPK1(h), under 5 µM at CLK4 (h) and under 5 µM on CLK2 (h).

As for `CC(C)(C)c1coc2ccc(-c3cn[nH]c3)nc12` [Preparative Example 55], the IC50 against CLK4 (h) and on CLK2 (h) (setting [1]) was under 1 µM throughout.

In the case of `Cn1cc(-c2ccc3occ(-c4cccc(-c5ccccc5)c4)c3n2)cn1` [Preparative Example 61], the IC50 at HIPK2(h) is under 0.1 µM; against HIPK1(h) it was under 1 µM; on DYRK2 it was under 5 µM; at CLK4 (h) it was under 0.1 µM; at CLK2 (h) (setting [1]), under 0.1 µM.

For the compound `c1ccc2cc(-c3coc4ccc(-c5cnoc5)nc34)ccc2c1` [Preparative Example 62], the IC50 at HIPK2(h) is under 1 µM; at HIPK1(h), under 1 µM; against CLK4 (h), under 5 µM; at CLK2 (h) (setting [1]), under 5 µM.

Consider `Cn1cc(-c2ccc3occ(-c4ccc5cn[nH]c5c4)c3n2)cn1` [Preparative Example 65], for which the IC50 against HIPK1(h) is under 1 µM; at DYRK2, under 1 µM; at CLK2 (h) (setting [1]), under 0.1 µM.

`Cn1cc(-c2ccc3occ(-c4ccc(C(N)=O)cc4)c3n2)cn1` [Preparative Example 66]: the IC50 is under 1 µM against HIPK1(h), under 5 µM against DYRK2 and under 1 µM on CLK2 (h) (setting [1]).

Regarding `Cn1cc(-c2ccc3occ(-c4ccc(CO)cc4)c3n2)cn1` [Preparative Example 70], the IC50 against HIPK1(h) was under 1 µM; against DYRK2 it was under 5 µM; on CLK2 (h) (setting [1]) it was under 1 µM.

For the compound `Cn1cc(-c2ccc3occ(-c4ccc(S(C)(=O)=O)cc4)c3n2)cn1` [Preparative Example 71], the results for the IC50 against HIPK1(h), against DYRK2 and at CLK2 (h) (setting [1]) were under 5 µM, under 5 µM and under 1 µM, respectively.

As to `Cn1cc(-c2ccc3occ(-c4ccc([S+](C)[O-])cc4)c3n2)cn1` (stereo not drawn) [Preparative Example 73], the half-maximal inhibitory concentration (IC50) against DYRK2 and on CLK2 (h) (setting [1]) was under 5 µM throughout.

With `Cn1cc(-c2ccc3occ(-c4cccc(C(C)(C)C)c4)c3n2)cn1` [Preparative Example 74], the IC50 against HIPK1(h) was under 5 µM; on CLK2 (h) (setting [1]), under 1 µM.

With `Cc1cc2occ(-c3ccc4ccccc4c3)c2nc1-c1cnn(C)c1` [Preparative Example 80], the IC50 at CLK2 (h) (setting [1]) is under 1 µM.

Take `Cn1cc(-c2ccc3occ(-c4ccc(-c5nnn[nH]5)cc4)c3n2)cn1` [Preparative Example 81]: the IC50 at HIPK1(h), against DYRK2 and on CLK2 (h) (setting [1]) was under 5 µM throughout.
